The assay concerns the target human cytosolic sulfotransferase 1C4 (hSULT1C4) (Homo sapiens, UniProt O75897). Nature of the assay: biochemical. Format: binding.

Molecules are shown by their SMILES.

Sequence of human cytosolic sulfotransferase 1C4 (hSULT1C4) (O75897 whole entry): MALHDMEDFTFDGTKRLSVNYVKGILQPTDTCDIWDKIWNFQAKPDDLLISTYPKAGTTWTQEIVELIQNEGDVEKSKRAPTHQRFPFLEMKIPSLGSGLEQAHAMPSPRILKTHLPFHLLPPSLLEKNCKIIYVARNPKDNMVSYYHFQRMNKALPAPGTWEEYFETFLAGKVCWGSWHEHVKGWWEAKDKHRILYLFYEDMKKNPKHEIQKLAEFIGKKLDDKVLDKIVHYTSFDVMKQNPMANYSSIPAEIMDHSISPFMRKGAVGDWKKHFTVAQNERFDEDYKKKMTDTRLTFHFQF

Turning to `Nc1ncnc2c1ncn2[C@@H]1O[C@H](COP(=O)(O)O)[C@@H](OP(=O)(O)O)[C@H]1O` [PAP], the equilibrium dissociation constant (Kd) (as a rule, the equilibrium constant for the complex coming apart) was 2800 ± 200 nM.
